Where two headings read alike, the source gives them in different places.
How the values were obtained:
[1] = molecular target: T1, triton-extracted alpha-synuclein from PD Tissue (Homo sapiens, UniProt P37840); assay: Alpha-synuclein tissue homogenate binding assay (Assay 1), displacement of [^3H]-1000; conditions: for Selectivity ratio (Assay 2/Assay 1): Aβ Tissue Ki / α-synuclein Tissue Ki; for Ki: read-out: α-synuclein Tissue Ki (Assay 1)
T1 construct: tissue Analytic Biological Services Inc; host or cells: human PD temporal cortex grey matter, Triton X-100 insoluble pellet

[2] = molecular target: aggregated beta amyloid in AD tissue (Homo sapiens, UniProt P05067); assay: Competitive radioligand binding to pathological aggregated beta amyloid in AD tissue (Assay 2), displacement of [^3H]-105; conditions: Aβ-rich AD frontal cortex homogenate, [^3H]-105, Kd 11.0 nM
aggregated beta amyloid in AD tissue, sequence (P05067 672-711 limits assumed): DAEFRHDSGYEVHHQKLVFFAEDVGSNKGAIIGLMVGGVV
Method: Frozen human brain samples of Alzheimer's disease (AD) were purchased from Analytic Biological Services Inc. The samples were post-mortem tissue from donors with clinical diagnosis of AD and much of the white matter was dissected out of the frontal cortex in order to enrich the tissue preparations for gray matter. Brain homogenates of gray matter enriched frontal cortex were prepared by homogenizing the tissue in ice cold Phosphate Buffered Saline (PBS), pH 7.4 at 80 mg wet weight tissue per 1 ml for 45 seconds at 4° C., on setting 16 of Polytron. The homogenate was further diluted with ice cold PBS to 30 mg wet weight tissue per 1 ml and homogenized for an additional minute as described above. Homogenates were aliquoted in 5 ml/tube and stored at −70° C. until use.
Radioligand [^3H]-105, prepared as described in ACS Med. Chem. Lett., Vol. 2, pages 498-502, was used in this assay.
For Assay 2 unlabeled test compounds were dissolved in DMSO at 10 mM. Dilutions of tests compounds to various concentrations were made in 100% DMSO at 1000× final assay concentration and 0.225 μl aliquots were dispensed into assay plates. Brain homogenates were diluted to 0.5 mg/ml from original 30 mg/ml volume in Assay Buffer, and 200 μl were added to the assay plate for a final concentration of 100 ug wet weight/assay well. [^3H]-105 was prepared at 10× final concentration in Assay Buffer plus 20% DMSO and 25 μl was added to the assay plate for final assay concentration of 3.0 nM. The plates were incubated at 37° C. for 90 minutes. Unbound and bound ligand were separated by filtration of bound onto GF/B filter plates (pre-treated for 30 min with 0.1% PEI) using a Packard Filtermate and washing away unbound with 2.5 mil ice cold 5 mM Tris at pH 7.4. Filter plates were dried for 1 hr at 57° C. and 50 μl Microscint was added to each well of the plate. The plates were counted for ^3H cpm for 1 min per well using PerkinElmer TopCount.

[3] = insoluble fraction of PD brain homogenate, [^3H]-1000 3.0 nM, Kd 0.90 nM

| Compound | Selectivity ratio (Assay 2/Assay 1) [1] | Ki [1, 3] [nM] | Ki [2] [nM] | Ki [1] [nM] |
| --- | --- | --- | --- | --- |
| COC[C@H]1CN(c2ccc(F)nc2)CCN1c1ncc(/C=C/c2ccc(-n3ccnc3)nc2)cn1 [Example 32, (R,E)-5-(2-(6-(1H-imidazol-1-yl)pyridin-3-yl)vinyl)-2-(4-(6-fluoropyridin-3-yl)-2-(methoxymethyl)piperazin-1-yl)pyrimidine] | 13333 | 0.9 | ≥ 12000 | – |
| OC[C@H]1CN(c2ccc(F)nc2)CCN1c1ncc(/C=C/c2ccc(-n3ccnc3)nc2)cn1 [Example 33, (R,E)-(1-(5-(2-(6-(1H-imidazol-1-yl)pyridin-3-yl)vinyl)pyrimidin-2-yl)-4-(6-fluoropyridin-3-yl)piperazin-2-yl)methanol] | 6667 | – | ≥ 12000 | 1.8 |
| COC[C@H]1CN(c2ncc(/C=C/c3ccc(-n4ccnc4)nc3)cn2)CCN1c1ncccn1 [Example 2, (R,E)-5-(2-(6-(1H-imidazol-1-yl)pyridin-3-yl)vinyl)-2-(3-(methoxymethyl)-4-(pyrimidin-2-yl)piperazin-1-yl)pyrimidine] | 13333 | 0.9 | ≥ 12000 | – |
| COC[C@H]1CN(c2ncc(C#Cc3ccc(-n4ccnc4)nc3)cn2)CCN1c1cncc(F)n1 [Example 69, (R)-5-((6-(1H-imidazol-1-yl)pyridin-3-yl)ethynyl)-2-(4-(6-fluoropyrazin-2-yl)-3-(methoxymethyl)piperazin-1-yl)pyrimidine] | 183 | 6.57 | ≥ 1200 | – |
| OC[C@H]1CN(c2cnccn2)CCN1c1ncc(/C=C/c2ccc(-n3ccnc3)nc2)cn1 [Example 23, (R,E)-(1-(5-(2-(6-(1H-imidazol-1-yl)pyridin-3-yl)vinyl)pyrimidin-2-yl)-4-(pyrazin-2-yl)piperazin-2-yl)methanol] | 10000 | – | ≥ 12000 | 1.2 |
| COC[C@H]1CN(c2ccccn2)CCN1c1ncc(/C=C/c2ccc(-n3ccnc3)nc2)cn1 [Example 18, (R,E)-5-(2-(6-(1H-imidazol-1-yl)pyridin-3-yl)vinyl)-2-(2-(methoxymethyl)-4-(pyridin-2-yl)piperazin-1-yl)pyrimidine] | 24000 | 0.5 | ≥ 12000 | – |
| Cn1cc(-c2ncc(C#Cc3cnc(N4CCN(c5ncccn5)[C@@H](COCCF)C4)nc3)cn2)cn1 [Example 51, (R)-2-(3-((2-fluoroethoxy)methyl)-4-(pyrimidin-2-yl)piperazin-1-yl)-5-((2-(1-methyl-1H-pyrazol-4-yl)pyrimidin-5-yl)ethynyl)pyrimidine] | 654 | 1.83 | ≥ 1200 | – |
| FCCOC[C@H]1CN(c2ncc(C#Cc3ccc(-n4cnnc4)nc3)cn2)CCN1c1ncncn1 [Example 70, (R)-2-(4-(5-((6-(4H-1,2,4-triazol-4-yl)pyridin-3-yl)ethynyl)pyrimidin-2-yl)-2-((2-fluoroethoxy)methyl)piperazin-1-yl)-1,3,5-triazine] | 472 | 2.54 | ≥ 1200 | – |
| COC[C@H]1CN(c2ncc(C#Cc3ccc(N4CC[C@H](F)C4)nc3)cn2)CCN1c1ncccn1 [Example 72, 5-((6-((S)-3-fluoropyrrolidin-1-yl)pyridin-3-yl)ethynyl)-2-((R)-3-(methoxymethyl)-4-(pyrimidin-2-yl)piperazin-1-yl)pyrimidine] | 617 | 1.94 | ≥ 1200 | – |
| COCCOC[C@H]1CN(c2ccccn2)CCN1c1ncc(/C=C/c2ccc(-n3ccnc3)nc2)cn1 [Example 6, (R,E)-5-(2-(6-(1H-imidazol-1-yl)pyridin-3-yl)vinyl)-2-(2-((2-methoxyethoxy)methyl)-4-(pyridin-2-yl)piperazin-1-yl)pyrimidine] | 100 | 1.8 | 180 | – |
| COC[C@H]1CN(c2cc(F)ncn2)CCN1c1ncc(/C=C/c2ccc(-n3ccnc3)nc2)cn1 [Example 13, (R,E)-5-(2-(6-(1H-imidazol-1-yl)pyridin-3-yl)vinyl)-2-(4-(6-fluoropyrimidin-4-yl)-2-(methoxymethyl)piperazin-1-yl)pyrimidine] | 12000 | 1 | ≥ 12000 | – |

Now from value to compound:

| Selectivity ratio (Assay 2/Assay 1) [1] | Ki [1, 3] [nM] | Ki [2] [nM] | Ki [1] [nM] | Compound |
| --- | --- | --- | --- | --- |
| 442 | 2.71 | ≥ 1200 | – | COC[C@H]1CN(c2ncc(C#Cc3ccc(-c4cnco4)nc3)cn2)CCN1c1ccnc(F)c1 [Example 64, (R)-5-(5-((2-(4-(2-fluoropyridin-4-yl)-3-(methoxymethyl)piperazin-1-yl)pyrimidin-5-yl)ethynyl)pyridin-2-yl)oxazole] |
| 840 | 1.43 | ≥ 1200 | – | Cn1cc(-c2ncc(C#Cc3cnc(N4CCN(c5ncccn5)[C@@H](COCCOCCOCCF)C4)nc3)cn2)cn1 [Example 82, (R)-2-(3-((2-(2-(2-fluoroethoxy)ethoxy)ethoxy)methyl)-4-(pyrimidin-2-yl)piperazin-1-yl)-5-((2-(1-methyl-1H-pyrazol-4-yl)pyrimidin-5-yl)ethynyl)pyrimidine] |
| 600 | 2 | ≥ 1200 | – | FCCOCCOC[C@H]1CN(c2ncc(/C=C/c3ccc(-c4cnco4)nc3)cn2)CCN1c1ncncn1 [Example 38, (R,E)-5-(5-(2-(2-(3-((2-(2-fluoroethoxy)ethoxy)methyl)-4-(1,3,5-triazin-2-yl)piperazin-1-yl)pyrimidin-5-yl)vinyl)pyridin-2-yl)oxazole] |
| 753 | 1.59 | ≥ 1200 | – | Cn1cc(-c2ncc(C#Cc3cnc(N4CCN(c5ncncn5)[C@@H](COCCOCCF)C4)nc3)cn2)cn1 [Example 78, (R)-2-(2-((2-(2-fluoroethoxy)ethoxy)methyl)-4-(5-((2-(1-methyl-1H-pyrazol-4-yl)pyrimidin-5-yl)ethynyl)pyrimidin-2-yl)piperazin-1-yl)-1,3,5-triazine] |
| 2600 | 0.5 | 1300 | – | FCCOC[C@H]1CN(c2ccncc2)CCN1c1ncc(/C=C/c2ccc(-n3ccnc3)nc2)cn1 [Example 31, (R,E)-5-(2-(6-(1H-imidazol-1-yl)pyridin-3-yl)vinyl)-2-(2-((2-fluoroethoxy)methyl)-4-(pyridin-4-yl)piperazin-1-yl)pyrimidine] |
| 1935 | 0.62 | ≥ 1200 | – | COC[C@H]1CN(c2ncc(/C=C/c3ccc(-c4cnn(CCF)c4)nc3)cn2)CCN1c1ncccn1 [Example 37, (R,E)-5-(2-(6-(1-(2-fluoroethyl)-1H-pyrazol-4-yl)pyridin-3-yl)vinyl)-2-(3-(methoxymethyl)-4-(pyrimidin-2-yl)piperazin-1-yl)pyrimidine] |
| 180 | 1 | 180 | – | COC[C@H]1CN(c2ccnc(F)c2)CCN1c1ncc(/C=C/c2ccc(-n3ccnc3)nc2)cn1 [Example 29, (R,E)-5-(2-(6-(1H-imidazol-1-yl)pyridin-3-yl)vinyl)-2-(4-(2-fluoropyridin-4-yl)-2-(methoxymethyl)piperazin-1-yl)pyrimidine] |
| 929 | 1.29 | ≥ 1200 | – | COC[C@H]1CN(c2ncc(C#Cc3cnc(-c4cnn(CCF)c4)nc3)cn2)CCN1c1ncncn1 [Example 46, (R)-2-(4-(5-((2-(1-(2-fluoroethyl)-1H-pyrazol-4-yl)pyrimidin-5-yl)ethynyl)pyrimidin-2-yl)-2-(methoxymethyl)piperazin-1-yl)-1,3,5-triazine] |
| 618 | 1.94 | ≥ 1200 | – | FCCCOC[C@H]1CN(c2ncc(C#Cc3ccc(-c4cnco4)nc3)cn2)CCN1c1ncncn1 [Example 74, (R)-5-(5-((2-(3-((3-fluoropropoxy)methyl)-4-(1,3,5-triazin-2-yl)piperazin-1-yl)pyrimidin-5-yl)ethynyl)pyridin-2-yl)oxazole] |
| 706 | 1.7 | ≥ 1200 | – | COC[C@H]1CN(c2ncc(C#Cc3ccc(-c4cnco4)nc3)cn2)CCN1c1ncc(OCCF)cn1 [Example 66, (R)-5-(5-((2-(4-(5-(2-fluoroethoxy)pyrimidin-2-yl)-3-(methoxymethyl)piperazin-1-yl)pyrimidin-5-yl)ethynyl)pyridin-2-yl)oxazole] |
| 400 | 0.9 | 360 | – | COC[C@H]1CN(c2ncc(C)cn2)CCN1c1ncc(/C=C/c2ccc(-n3ccnc3)nc2)cn1 [Example 25, (R,E)-5-(2-(6-(1H-imidazol-1-yl)pyridin-3-yl)vinyl)-2-(2-(methoxymethyl)-4-(5-methylpyrimidin-2-yl)piperazin-1-yl)pyrimidine] |
| 2105 | 0.57 | ≥ 1200 | – | Cn1cc(-c2ncc(C#Cc3cnc(N4CCN(c5ncncn5)[C@@H](COCCF)C4)nc3)cn2)cn1 [Example 44, (R)-2-(2-((2-fluoroethoxy)methyl)-4-(5-((2-(1-methyl-1H-pyrazol-4-yl)pyrimidin-5-yl)ethynyl)pyrimidin-2-yl)piperazin-1-yl)-1,3,5-triazine] |
| 7 | 4.41 | 32 | – | COC[C@H]1CN(c2cnc(C#Cc3ccc(-n4ccnc4)nc3)c(F)n2)CCN1c1ncccn1 [Example 57, (R)-2-(4-(5-((6-(1H-imidazol-1-yl)pyridin-3-yl)ethynyl)-6-fluoropyrazin-2-yl)-2-(methoxymethyl)piperazin-1-yl)pyrimidine] |
| 44 | 1.8 | 80 | – | COC[C@H]1CN(c2ncc(/C=C/c3ccc(-n4ccnc4)nc3)cn2)CCN1c1ncc(F)cn1 [Example 27, (R,E)-5-(2-(6-(1H-imidazol-1-yl)pyridin-3-yl)vinyl)-2-(4-(5-fluoropyrimidin-2-yl)-3-(methoxymethyl)piperazin-1-yl)pyrimidine] |

Reference: patent US20260224758A1, “ALPHA-SYNUCLEIN BINDERS AND METHODS OF USE” (Merck Sharp & Dohme LLC, priority 2023, published 2026)
